Each structure is given as a SMILES string. Where two headings read alike, the source gives them in different places.

The target of test [1] is TNF-α converting enzyme (TACE) (Homo sapiens, UniProt P78536). The experiment in a line: TACE inhibition, fluorescent peptidyl substrate. Format: biochemical. Here is the method:
[…] The reaction is initiated by addition of a fluorescent peptidyl substrate (final concentration 100 μM) to each well and then shaking on a shaker for 5 sec.
The reaction is read (excitation 340 nm, emission 420 nm) for 10 min. and the increase in fluorescence over time is plotted as a linear line. The slope of the line is calculated and represents the reaction rate.
The mean (x±sem) of the control rate is calculated and compared for statistical significance (p<0.05) with drug-treated rates using Dunnett's multiple comparison test.

Test [2] deals with THP-1 cells (soluble TNF-α). The test can be described thus: Human monocytic THP-1 cell differentiation assay for soluble proteins (THP soluble protein assay). The conditions noted are these: negative = less TNF-α; for inhibition at 3 µM: Homo sapiens, THP-1, percent change from vehicle positive control, read-out: TNFalpha at 3 uM, THP (percent change); for TNFalpha at 3 uM, THP (percent change): percent change from vehicle positive control. Type of test: cell-based. The source says:
Mitogenic stimulation of THP-1 cells cause differentiation into macrophage like cells with concomitant secretion of tumor necrosis factor (TNF-a) and TNF receptor (TNF-R p75/80 and TNF-R p55/60) and Interleukin-8 (IL-8), among other proteins. […] The release of membrane bound TNF-a and possibly TNF-R p75/80 and TNF-R p55/60, but not IL-8, is mediated by an enzyme called TNF-α converting enzyme or TACE.
THP-1 cells (from ATCC) are a human monocytic cell line which were obtained from the peripheral blood of a person with acute monocytic leukemia They can be grown in culture and differentiated into macrophage like cells by stimulation with mitogens.
Each vial of cells are cultured for about two weeks prior to being used for an assay and then are used for only 4 to 6 weeks to screen compounds.
Cell exposure to DMSO was limited to 0.1% final concentration. […] Compounds can be evaluated for their effect on basal (non-stimulated) shedding of the receptors by replacing the LPS with […] of THP-1 media Plates are placed into an incubator set at 5% CO2 and at 37° C. After 4 hours of incubation, […] of tissue culture supernatant (TCS) is removed for use in an TNF-α ELISA. Following 24 hours of incubation, […] of TCS is removed and used for analysis in TNF-R p75/80, TNF-R p55/60 and IL-8 ELISAs.
In addition, at the 24 hours timepoint, and the cells for each treatment group are collected by resuspension in 500 μl/well of THP-1 media and transferred into a FACS tube. […] The samples are run on a Becton Dickinson FaxCaliber FLOW cytometry machine and the amount of dye taken up by each cell is measured in the high red wavelength (FL3). Only cells with compromised membranes (dead or dying) can take up PI. The percent of live cells is calculated by the number of cells not stained with PI, divided by the total number of cells in the sample. The viability values calculated for the drug treated groups were compared to the viability value calculated for the vehicle treated mitogen stimulated group (“vehicle positive control”) to determine the “percent change from control”. This “percent change from control” value is an indicator of drug toxicity.
The quantity of soluble TNF-α, TNF-R p75/80 and TNF-R p55/60 and IL-8 in the TCS of the ThP-1 cell cultures are obtained with commercially available ELISAs from R&D Systems, by extrapolation from a standard curve generated with kit standards. The number of cells that either take up or exclude PI are measured by the FLOW cytometry machine and visualized by histograms using commercially available Cytologic software for each treatment group including all controls.
Biological variability in the magnitude of the response of THP-1 cell cultures requires that experiments be compared on the basis of percent change from “vehicle positive control” for each drug concentration. Percent change in each soluble protein evaluated from the “vehicle positive control” was calculated for each compound concentration with the following formula: [formula]
For the soluble protein (TNF-a, p75/80, p55/60, IL-8) studies under stimulated conditions, the mean pg/ml of duplicate wells were determined and the results expressed as percent change from “vehicle positive control”. For the soluble protein (p75/80 and p55/60 receptors) studies under non-stimulated conditions, the mean pglml of duplicate wells were determined and the results expressed as percent change from “vehicle positive control” utilizing the following formula: [formula]
IC50 values for each compound are calculated by non-linear regression analysis using customized software utilizing the JUMP statistical package.
For the cell viability studies, the viabilities (PI exclusion) of pooled duplicate wells were determined and the results expressed as % change from “vehicle positive control”.

A further test deals with T1, MMP-1 (Homo sapiens, UniProt P03956).
T1 sequence (P03956 100-469): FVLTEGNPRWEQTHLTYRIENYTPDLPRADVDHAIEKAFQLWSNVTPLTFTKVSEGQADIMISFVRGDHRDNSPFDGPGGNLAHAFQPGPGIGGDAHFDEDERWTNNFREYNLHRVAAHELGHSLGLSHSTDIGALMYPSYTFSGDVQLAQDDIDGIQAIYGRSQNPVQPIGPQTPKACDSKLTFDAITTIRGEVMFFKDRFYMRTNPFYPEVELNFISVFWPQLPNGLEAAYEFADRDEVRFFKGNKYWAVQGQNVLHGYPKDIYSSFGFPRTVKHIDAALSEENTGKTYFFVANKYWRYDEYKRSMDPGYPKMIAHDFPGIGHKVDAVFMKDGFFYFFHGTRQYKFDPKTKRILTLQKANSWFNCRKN
The experiment in a line: MMP-1 inhibition, thiopeptide or fluorescent peptide substrate. Format: biochemical. The settings on record: Table 1, second part; for inhibition at 10 µM: read-out: MMP1 % @ 10 μM; for IC50: read-out: MMP1 IC50. Here is the method: (§1) The enzyme activity is measured by the rate of the color increase. The thiopeptide substrate is made up fresh as a 20 mM stock in 100% DMSO and the DTNB is dissolved in 100% DMSO as a 100 mM stock and stored in the dark at room temperature. Both the substrate and DTNB are diluted together to 1 mM with substrate buffer (50 mM HEPES pH 7.5, 5 mM CaCl2) before use. The stock of enzyme is diluted with buffer (50 mM HEPES, pH 7.5, 5 mM CaC12, 0.02% Brij) to the desired final concentration.
(§2) Alternatively, a fluorescent peptide substrate is used. In this test procedure, the peptide substrate contains a fluorescent group and a quenching group. Upon cleavage of the substrate by an MMP, the fluorescence that is generated is quantitated on the fluorescence plate reader. The assay is run in HCBC assay buffer (50 mM HEPES, pH 7.0, 5 mM Ca^+2, 0.02% Brij, 0.5% Cysteine), with human recombinant MMP-1, MMP-9, or MMP-13. The substrate is dissolved in methanol and stored frozen in 1 mM aliquots. For the assay, substrate and enzymes are diluted in HCBC buffer to the desired concentrations. Compounds are added to the 96 well plate containing enzyme and the reaction is started by the addition of substrate.
(§3) For either the thiopeptide or fluorescent peptide test procedures, the slope of the line is calculated and represents the reaction rate. […] The mean (x±sem) of the control rate is calculated and compared for statistical significance (p<0.05) with drug-treated rates using Dunnett's multiple comparison test.

The target in a further test is MMP-9 (Homo sapiens, UniProt P14780). The experiment in a line: MMP-9 inhibition, thiopeptide or fluorescent peptide substrate. Type of test: biochemical. The conditions noted are these: for inhibition at 10 µM: read-out: MMP9 % @ 10 μM; for IC50: read-out: MMP9 IC50. On the procedure:
as §1, §2, §3

A further test concerns the target MMP-13 (Homo sapiens, UniProt P45452). The test can be described thus: MMP-13 inhibition, thiopeptide or fluorescent peptide substrate. Format: biochemical. The conditions noted are these: for IC50: read-out: MMP13 IC50; for inhibition at 10 µM: read-out: MMP13 % @ 10 μM. Here is the method: as §1, §2, §3
[3] abbreviates: Table 1, second part, footnote a: IC50 (nM), read-out: TACE IC50.

TNF-α converting enzyme (TACE), sequence (P78536 215-824): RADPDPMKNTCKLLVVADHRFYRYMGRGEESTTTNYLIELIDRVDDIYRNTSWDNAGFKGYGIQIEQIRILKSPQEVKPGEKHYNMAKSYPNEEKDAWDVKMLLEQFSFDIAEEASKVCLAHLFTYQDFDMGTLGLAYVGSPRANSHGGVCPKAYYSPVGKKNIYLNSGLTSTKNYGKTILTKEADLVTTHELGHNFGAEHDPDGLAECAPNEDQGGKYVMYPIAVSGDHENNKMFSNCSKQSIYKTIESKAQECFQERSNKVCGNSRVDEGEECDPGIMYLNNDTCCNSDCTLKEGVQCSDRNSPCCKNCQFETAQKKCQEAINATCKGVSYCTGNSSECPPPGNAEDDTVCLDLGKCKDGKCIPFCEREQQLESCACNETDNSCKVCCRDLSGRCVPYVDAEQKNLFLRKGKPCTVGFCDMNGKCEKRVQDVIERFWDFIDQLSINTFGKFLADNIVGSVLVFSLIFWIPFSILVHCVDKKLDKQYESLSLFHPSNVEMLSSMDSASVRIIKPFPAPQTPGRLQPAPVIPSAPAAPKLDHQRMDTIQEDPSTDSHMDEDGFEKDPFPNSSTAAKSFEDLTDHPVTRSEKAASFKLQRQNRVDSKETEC
MMP-9, sequence (P14780 94-707): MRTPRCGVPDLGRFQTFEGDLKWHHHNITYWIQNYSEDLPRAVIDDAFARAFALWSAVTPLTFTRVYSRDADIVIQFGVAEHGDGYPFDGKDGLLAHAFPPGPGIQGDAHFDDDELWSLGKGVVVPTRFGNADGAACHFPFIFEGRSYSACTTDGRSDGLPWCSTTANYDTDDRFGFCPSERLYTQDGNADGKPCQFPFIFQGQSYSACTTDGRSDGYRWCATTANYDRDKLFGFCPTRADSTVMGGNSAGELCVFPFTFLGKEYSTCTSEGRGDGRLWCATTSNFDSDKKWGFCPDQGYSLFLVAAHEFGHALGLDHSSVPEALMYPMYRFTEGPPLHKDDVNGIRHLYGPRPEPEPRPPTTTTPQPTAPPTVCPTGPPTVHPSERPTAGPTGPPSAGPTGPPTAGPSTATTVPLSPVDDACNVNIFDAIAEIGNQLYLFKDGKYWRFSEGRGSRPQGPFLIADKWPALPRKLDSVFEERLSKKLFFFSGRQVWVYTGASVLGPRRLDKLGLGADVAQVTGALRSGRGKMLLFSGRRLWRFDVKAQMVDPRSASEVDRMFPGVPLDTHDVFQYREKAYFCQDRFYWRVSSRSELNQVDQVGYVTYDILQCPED

Usually IC50 stands for the concentration needed to halve the response being measured. For the molecule `CC#CCOc1ccc([S+]([O-])[C@@H](C(=O)NO)c2ccc(OC)cc2)cc1` (single isomer, unassigned) [Example 77], the half-maximal inhibitory concentration (IC50) stood at 201 nM in test [1] and 3690 nM on MMP-13 (Table 1, second part). The inhibition at 3 µM in test [2] is 12%. Besides, the inhibition at 10 µM on MMP-1 (10 μM) came to 17.5%; at MMP-9 (Table 1, second part), 45.4%.

Turning to `CC#CCOc1ccc([S+]([O-])C(C(=O)NO)c2ccccc2)cc1` (single isomer, unassigned) [Example 113, S-2-{[4-(2-butynyloxy)phenyl]sulfinyl}-2-phenyl-N-hydroxyacetamide], in test [1] (setting [3]), the IC50 is 162 nM. For the same molecule, in test [2], the inhibition at 3 µM worked out at 4%. Besides, the inhibition at 10 µM at MMP-1 (10 μM) was 6.2%; on MMP-9 (Table 1, second part) it was 25.7%; on MMP-13 (Table 1, second part, 10 μM), 59%.

Turning to `CC#CCOc1ccc(S(=O)(=O)C(CCCCCC)C(=O)NO)cc1` (stereo not shown) [Example 5, 2-(4-But-2-ynyloxy-benzenelsulfonyl)-octanoic Acid Hydroxamide], the concentration for half-maximal inhibition (IC50) in test [1] (Table 1, first part, read-out: TACE IC50) amounted to 74.8 nM; at MMP-9 (Table 1, first part) it was 2500 nM; at MMP-13 (Table 1, first part) it was 500 nM.

`CC#CCOc1ccc([S+]([O-])C(C(=O)NO)c2cccc3ccccc23)cc1` (stereo not shown) [Example 93, 2-{[4-(2-Butynyloxy)phenyl]sulfinyl}-N-hydroxy-2-(1-napthyl)acetamide]: the “TACE % @ 10 μM” value in test [1] (Table 1, second part, footnote a: % @ 10 μM) was 15.63%. In addition, the “TNFalpha at 3 uM, THP (percent change)” value in test [2] is reported as 1%. The “MMP1 % @ 10 μM” value at MMP-1 (10 μM) is recorded as 7%. Also, the “MMP13 % @ 10 μM” value at MMP-13 (Table 1, second part, 10 μM) is listed as 17%.

For `CC#CCOc1ccc([S+]([O-])C(C(=O)NO)c2ccc(F)cc2)cc1` (stereo not shown) [Example 96], in test [1] (setting [3]), the IC50 came out at 148 nM. In addition, in test [2], the inhibition at 3 µM worked out at 12%. Moreover, the inhibition at 10 µM was 18.4% on MMP-1 (10 μM); 0% at MMP-9 (Table 1, second part); 53.4% at MMP-13 (Table 1, second part, 10 μM).

Take `CC#CCOc1ccc([S+]([O-])[C@@H](C(=O)NO)C(C)C)cc1` (stereo partly shown) [Example 108, R-2-{[4-(2-butynyloxy)phenyl]sulfinyl}-2-isopropyl-N-hydroxyacetamide]: the “TNFalpha at 3 uM, THP (percent change)” value in test [2] was −29%. Moreover, the concentration for half-maximal inhibition (IC50) on MMP-1 turned out to be 6480 nM; on MMP-9 (Table 1, second part), 399 nM.

For the molecule `CC#CCOc1ccc([S+]([O-])C(C(=O)NO)C(C)C)cc1` (stereo not shown) [Example 109, S-2-{[4-(2-butynyloxy)phenyl]sulfinyl}-2-isopropyl-N-hydroxyacetamide], the “TNFalpha at 3 uM, THP (percent change)” value in test [2] is on record as −20%. Also, the concentration for half-maximal inhibition (IC50) turned out to be 2990 nM on MMP-1 and 893 nM on MMP-9 (Table 1, second part).
